Data on eight molecules can be found in ChEMBL document CHEMBL1201862, “PubChem BioAssay data set” (2004).

Holding throughout (assay): NCI tumour cell line growth inhibition, 48 h
Test [1] deals with A498.
The subject of test [2] is COLO 205.
Test [3] has as its system HCC 2998.
Test [4] relates to HOP-92.
Test [5] concerns IGROV-1.
Test [6] deals with KM-20L2.
Test [7] deals with M14.
Test [8] relates to Malme-3M.
In test [9] the test system is OVCAR-3.
The subject of test [10] is OVCAR-8.
Test [11] relates to RPMI-8226.
The subject of test [12] is SF-268.
Test [13] relates to SF-295.
Test [14] deals with SK-MEL-28.
In test [15] the test system is SK-MEL-2.
Test [16] concerns SR.
Test [17] has as its system MCF7.
The test system of test [18] is MDA-MB-231.
The subject of test [19] is MDA-N.
The test system of test [20] is PC-3.

Structures are written as SMILES.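 Test compounds were applied to cells in 96-well plates for 48 hours at 5 doses. Abbreviation: GI50, concentration required for 50% inhibition of growth.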 Activity calls are given as the source filed them. No stated cut-off is given here; in the data, active = GI50 up to about 1.1 µM and inactive = higher. Where only a bound is given, the exact number is not on record here.

Turning to `COc1cc(C(=C2SCCS2)c2nccc3cc(OC)c(OC)cc23)c([N+](=O)[O-])cc1OC`, the GI50 in test [1] was > 100 µM (inactive); in [2], 35.3 µM (inactive); in test [3], > 100 µM (inactive); in [4], 8.71 µM (inactive); in test [5], > 100 µM (inactive); in test [6], 51.1 µM (inactive). The GI50 in test [7] is 89.9 µM (inactive); in test [8], 74.3 µM (inactive); in [9] it was 40.9 µM (inactive); in [10], > 100 µM (inactive); in [11] it was 20.8 µM (inactive); in [12] it was 80.9 µM (inactive). For the same molecule, the GI50 is 56 µM (inactive) in test [13], > 100 µM (inactive) in [14], > 100 µM (inactive) in [15] and 21.7 µM (inactive) in test [16].

Take `COc1cccc2c1C(=O)c1c(O)c3c(c(O)c1C2=O)CC(O)(C(C)=O)CC3OC1CC([N+](C)(C)C)C(O)C(C)O1` (stereo not drawn): the GI50 in test [1] was > 100 µM (inactive); in [2], 48.1 µM (inactive); in [3], > 100 µM (inactive); in [4] it was > 100 µM (inactive); in [5], 42.1 µM (inactive); in test [6] it was > 100 µM (inactive). For the same molecule, the GI50 in [7] is > 100 µM (inactive); in [8], > 100 µM (inactive); in test [9], > 100 µM (inactive); in test [10] it was 54.3 µM (inactive); in [11], 22.5 µM (inactive); in test [12] it was > 100 µM (inactive). The GI50 is > 100 µM (inactive) in test [13], > 100 µM (inactive) in test [14], > 100 µM (inactive) in test [15] and 5.24 µM (inactive) in [16].

Consider `S=c1nc(N2CCCCC2)ss1`, for which the GI50 is 20.2 µM (inactive) in [1]; 16.2 µM (inactive) in test [3]; 17.5 µM (inactive) in [4]; 25.1 µM (inactive) in test [5]; > 100 µM (inactive) in test [6]; 20.2 µM (inactive) in test [7]. The GI50 in [8] is 19.3 µM (inactive); in test [10], 28.5 µM (inactive); in [11] it was 2.75 µM (inactive); in [12], 21.1 µM (inactive); in [13], 29 µM (inactive); in test [14] it was 18.4 µM (inactive). The GI50 in [15] was 20 µM (inactive); in [16], 14.2 µM (inactive).

For `N=C(N)NS(=O)(=O)c1ccc(NCc2c3ccccc3nc3ccccc23)cc1`, the GI50 in [1] is 1.17 µM (inactive); in test [2] it was > 80.9 µM (inactive); in test [3], 7.38 µM (inactive); in test [4], 0.24 µM (active); in test [5] it was 23.4 µM (inactive); in [6], 57.9 µM (inactive). In addition, the GI50 was 4.67 µM (inactive) in test [7]; 0.0566 µM (active) in test [17]; 23 µM (inactive) in test [18]; 71.1 µM (inactive) in [19]; 4.75 µM (inactive) in test [8]; 11.6 µM (inactive) in test [9]. Moreover, the GI50 in test [10] is 3.78 µM (inactive); in test [20], 16.1 µM (inactive); in [11] it was 2.82 µM (inactive); in test [12] it was 0.679 µM (active); in test [13], 2.45 µM (inactive); in [14], 47.3 µM (inactive). Besides, the GI50 was > 20 µM (inactive) in test [15] and 0.0363 µM (active) in test [16].

As for `C[C@]12CC[C@H](OC3OC(CO)C(O)C(O)C3O)C[C@H]1CC[C@@H]1[C@@H]2CC[C@]2(C)[C@@H](C3=CCOC3=O)CC[C@]12O` (stereo partly drawn) [ACTODIGIN], the GI50 in test [1] is 5.48 µM (inactive); in [2], 16.9 µM (inactive); in test [3] it was 26.8 µM (inactive); in test [4], 2.24 µM (inactive); in test [5] it was 28.4 µM (inactive); in test [6], 3.55 µM (inactive). The GI50 was > 100 µM (inactive) in test [7]; 10.4 µM (inactive) in [17]; > 100 µM (inactive) in test [18]; > 100 µM (inactive) in test [19]; 2.09 µM (inactive) in test [8]; > 100 µM (inactive) in [20]. Further, the GI50 was 8.2 µM (inactive) in [12]; 1.45 µM (inactive) in test [13]; 22.5 µM (inactive) in test [14]; 30.9 µM (inactive) in test [15]; 2.96 µM (inactive) in test [16].

In the case of `CCN(CC)c1ccc(C(=C2C=CC(=[N+](CC)CC)C=C2)c2ccc(N(CC)CC)cc2)cc1`, the GI50 in [2] was 0.0627 µM (active); in test [3] it was 0.186 µM (active); in test [4] it was 0.211 µM (active); in test [5] it was 0.146 µM (active); in test [6], 0.184 µM (active); in [7], 0.175 µM (active). In addition, the GI50 was 0.158 µM (active) in test [17]; 0.063 µM (active) in test [18]; 0.103 µM (active) in test [19]; 0.148 µM (active) in test [8]; 0.0393 µM (active) in [9]; 0.0391 µM (active) in test [10]. Besides, the GI50 was 0.0423 µM (active) in [20]; 0.0342 µM (active) in [11]; 0.084 µM (active) in [12]; 0.0483 µM (active) in test [13]; 0.489 µM (active) in test [14]; 0.117 µM (active) in [15]. In test [16], the GI50 is 0.0843 µM (active).

Turning to `O=C1CCCC[C@H]1[C@H]1CCC[C@@H]([C@H]2CCCCC2=O)C1=O`, the GI50 in [1], in test [2], in [3], in test [4], in [5] and in test [6] was > 100 µM (inactive) each time. For the same molecule, the GI50 in test [7], in [8], in test [9], in test [11], in test [12] and in [13] was > 100 µM (inactive) in each case. Also, the GI50 in test [14], in [15] and in test [16] was > 100 µM (inactive) throughout.

With `CCCCCCCC(=O)OCC1OC(n2cc(F)c(=O)[nH]c2=O)C(N)C(O)C1O` (stereo not drawn), the GI50 in [1], in [2], in [3], in test [4], in test [5] and in test [6] was > 100 µM (inactive) each time. Further, the GI50 in test [7], in [8], in test [9], in [10], in test [11] and in [12] was > 100 µM (inactive) each time. Moreover, the GI50 in [13], in test [14], in [15] and in test [16] was > 100 µM (inactive) throughout.
